Reference: patent US20130217702A1 (Richter Gedeon Nyrt., priority 2010, published 2013)
Read-outs that look alike come from different tables or passages of the source.

Assays:
[1] = molecular target: T1, human recombinant bradykinin B1 receptor (Homo sapiens, UniProt P46663); test: Human recombinant bradykinin B1 receptor competitive radioligand binding
T1 construct: host or cells: CHO cells, clone hB1-A5
T1 sequence (P46663 1-353): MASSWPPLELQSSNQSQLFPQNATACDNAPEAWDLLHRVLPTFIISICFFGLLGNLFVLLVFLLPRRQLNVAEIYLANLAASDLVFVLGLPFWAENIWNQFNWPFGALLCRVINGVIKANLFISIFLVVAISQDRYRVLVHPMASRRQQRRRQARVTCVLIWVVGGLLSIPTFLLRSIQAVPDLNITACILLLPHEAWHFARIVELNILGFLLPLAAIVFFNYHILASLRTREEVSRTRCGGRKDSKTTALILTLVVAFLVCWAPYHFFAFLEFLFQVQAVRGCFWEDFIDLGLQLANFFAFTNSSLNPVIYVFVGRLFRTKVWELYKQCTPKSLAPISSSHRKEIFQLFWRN
Description: Assessment of Ligand Binding Affinity to B1 and B2 Receptors In Vitro by Competitive Radioligand Binding Assay
Binding assays were carried out on human recombinant bradykinin) receptors (expressed in CHO cells, hB1-A5) according to the Euroscreen Technical Data Sheet (Cat.No.:ES-091). 20 μg protein/tube was incubated with [3,4-prolyl-3,4-^3H(N)]-[Des-Arg^10] Kallidin as radioligand. Non specific binding was determined in the presence of 10 μM Lys-des-Arg^9-Bradykinin. The final incubation volume was 250 μl. Samples were incubated for 15 min. at 25° C. then were rapidly vacuum filtered through GF/B filters presoaked for at least 1 h in 0.5% PEI. Radioactivity was determined by liquid scintillation spectroscopy.
The ligand displacement by the compounds was determined using a minimum of seven concentrations in triplicate, and experiments were repeated at least two times. The specific radioligand binding is defined as the difference between total binding and the non-specific binding determined in the presence of an excess of unlabelled ligand. Results are expressed as a percent inhibition of specific binding obtained in the presence of RGH-478 or reference drugs. IC50 values (i.e. concentration of compound giving 50% inhibition of specific binding) were calculated from concentration-displacement curves by sigmoidal fitting using GraphPad Prism Software 4.0. Ki values (i.e. inhibition constants) were calculated using the Cheng-Prusoff equation. KD was determined from the Scatchard plot. (Editor-in-chief: Enna, S. J. and Williams, M. Current protocols in pharmacology vol. 1. John Wiley & sons Inc., 1998)

[2] = molecular target: T2, recombinant human B1 receptors (Homo sapiens, UniProt P46663); test: Functional assay: antagonist potency by cytosolic calcium measurement (plate reader fluorimeter) in CHO-B1 cells, agonist LysDABK; format: cell-based
T2 construct: host or cells: CHO (CHO-B1)
T2 sequence (P46663 1-353): T1 sequence (P46663 1-353)
Description: Assessment of Antagonist Potency at B1 Receptors In Vitro by Measurement of Cytosolic Calcium Ion Concentration with a Plate Reader Fluorimeter in Cells Expressing Recombinant Human B1 Receptors
Chinese hamster ovary (CHO) cells stably expressing recombinant human B1 (CHO-B1, Euroscreen) receptors were cultured in Dulbecco's Modified Eagle's Medium (DMEM) containing 10% Fetal Calf Serum (FCS), 100 U/ml penicillin, 0.1 mg/ml streptomycin, 0.25 μg/ml amphotericin B, 1% Minimum Essential Medium Eagle (MEM), non essential amino acid solution, 600 μg/ml G418. Cells were kept at 37° C. in a humidified incubator in an atmosphere of 5% CO2/95% air and were passaged 1:4 three times a week. Cells were plated at 1.5−2.5×10^4 cell/well on standard 96-well microplates, measurements of cytosolic calcium ion concentration ([Ca^2+]i) were carried out 1-2 days after cell plating.
Measurements of [Ca^2+]i were carried out on CHO-B1 cells stably expressing human B1 receptors, respectively. Cells were grown in standard 96-well microplates and before the measurement were loaded with a fluorescent Ca^2+-sensitive dye, fluo-4/AM (2 μM): after removing the culture medium the dye was added to the cells (dissolved in assay buffer: 145 mM NaCl, 5 mM KCl, 2 mM MgCl2, 2 mM CaCl2, 10 mM HEPES, 20 mM D-glucose, 2 mM probenecid, 100 μl/well) and cells were incubated at 37° C. in a humidified incubator in an atmosphere of 5% CO2/95% air for 40-120 min. To stop dye loading cells were washed twice with assay buffer. After washing, various concentrations of the test compounds (diluted in extracellular medium from a DMSO stock solution, final DMSO concentration was <0.1%) or buffer were added to each well depending on the experimental setup. After incubation at 37° C. for 20-25 min. baseline and agonist-evoked changes of [Ca^2+]; were measured column by column with a plate reader fluorimeter (Fluoroskan Ascent, Labsystems). Excitation and detection of emission was carried out from the bottom of the plate. Filters used for Fluo-4: excitation filter 485 nm, emission filter 538 nm. The whole measurement process was performed at 37° C. and was controlled by custom software. Inhibitory potency of the test compounds was assessed by measuring the reduction in the agonist-evoked [Ca^2+]i-elevation in the presence of different concentrations of the compounds. The agonist was LysDABK for CHO-B1 cells. Agonist was applied at an EC80 concentration; the EC80-values were derived from daily determined dose-response curves. Fluorescence data were expressed as ΔF/F (fluorescence change normalized to baseline). All treatments on a single plate were measured in multiple wells. Data from all wells with the same treatment were averaged and the average values were used for analysis. Inhibitory potency of a compound at a single concentration point was expressed as percent inhibition of the control agonist response. Sigmoidal concentration-inhibition curves were fitted to the data (derived from at least three independent experiments) and IC50-values were determined as the concentration that produces half of the maximal inhibition caused by the compound.

[3] = hB1 expressed in CHO cells, [3H]-[Des-Arg10] Kallidin radioligand, read-out: B1 binding
[4] = CHO-B1 cells, inhibition of LysDABK (EC80)-evoked [Ca2+]i elevation, read-out: B1 func.

SMILES	Ki [1, 3]	IC50 [2, 4]	Ki ([1]; reference compounds, binding test, measured by the applicant, read-out: Ki)	IC50 ([2]; reference compounds, functional test, measured by the applicant, read-out: IC50)
Cc1nc(-c2c(Cl)c3cc(Cl)ccc3n2-c2ccc(CNC(=O)C3(NC(=O)c4ccnc(F)c4)CC3)cc2)no1 [Example 74, N-(1-{4-[3,5-Dichloro-2-(5-methyl-[1,2,4]oxadiazol-3-yl)-indol-1-yl]-benzylcarbamoyl}-cyclopropyl)-2-fluoro-isonicotinamide]	< 20 nM	< 20 nM	–	–
Cc1nc(-c2c(Cl)c3ccccc3n2-c2ccc(CNC(=O)C3(NC(=O)c4ccsc4)CC3)cc2)no1 [Example 167, Thiophene-3-carboxylic acid (1-{4-[3-chloro-2-(5-methyl-[1,2,4]oxadiazol-3-yl)-indol-1-yl]-benzylcarbamoyl}-cyclopropyl)-amide]	20 to 100 nM	20 to 100 nM	–	–
Cc1nc(-c2c(Cl)c3ccccc3n2-c2ccc(CNC(=O)C3(NC(=O)c4cccc(C(F)(F)F)c4F)CC3)cc2)no1 [Example 92, N-(1-{4-[3-Chloro-2-(5-methyl-[1,2,4]oxadiazol-3-yl)-indol-1-yl]-benzylcarbamoyl}-cyclopropyl)-2-fluoro-3-trifluoromethyl-benzamide]	< 20 nM	< 20 nM	–	–
Cc1nc(-c2c(Cl)c3cc(Cl)ccc3n2-c2ccc(CNC(=O)C3(NC(=O)c4cccnc4Cl)CC3)cc2)no1 [Example 70, 2-Chloro-N-(1-{4-[3,5-dichloro-2-(5-methyl-[1,2,4]oxadiazol-3-yl)-indol-1-yl]-benzylcarbamoyl}-cyclopropyl)-nicotinamide]	< 20 nM	< 20 nM	–	–
COc1cc(C(=O)NC2(C(=O)NCc3ccc(-n4c(-c5noc(C)n5)c(Cl)c5cc(F)ccc54)cc3F)CC2)on1 [Example 197, 3-Methoxy-isoxazole-5-carboxylic acid (1-{4-[3-chloro-5-fluoro-2-(5-methyl-[1,2,4]oxadiazol-3-yl)-indol-1-yl]-2-fluoro-benzylcarbamoyl}-cyclopropyl)-amide]	< 20 nM	< 20 nM	–	–
Cc1noc(-c2c(Cl)c3ccccc3n2-c2ccc(CNC(=O)C3(NC(=O)c4cncc(C(F)(F)F)c4)CC3)cc2)n1 [Example 115, N-(1-{4-[3-Chloro-2-(3-methyl-[1,2,4]oxadiazol-5-yl)-indol-1-yl]-benzylcarbamoyl}-cyclopropyl)-5-trifluoromethyl-nicotinamide]	< 20 nM	< 20 nM	–	–
CSc1ccc(C(=O)NC2(C(=O)NCc3ccc(-n4c(-c5noc(C)n5)c(Cl)c5ccccc54)cc3)CC2)s1 [Example 173, 5-Methylsulfanyl-thiophene-2-carboxylic acid (1-{4-[3-chloro-2-(5-methyl-[1,2,4]oxadiazol-3-yl)-indol-1-yl]-benzylcarbamoyl}-cyclopropyl)-amide]	< 20 nM	20 to 100 nM	–	–
Cc1nc(-c2c(Cl)c3cc(F)ccc3n2-c2ccc(CNC(=O)C3(NC(=O)C(F)(F)F)CC3)cc2)no1 [Example 189, 1-(2,2,2-Trifluoro-acetylamino)-cyclopropanecarboxylic acid 4-[3-chloro-5-fluoro-2-(5-methyl-[1,2,4]oxadiazol-3-yl)-indol-1-yl]-benzylamide]	< 20 nM	< 20 nM	–	–
Cc1nc(-c2c(Cl)c3ccccc3n2-c2ccc(CNC(=O)C3(NC(=O)c4ccnc(F)c4)CC3)c(F)c2)no1 [Example 109, N-(1-{4-[3-Chloro-2-(5-methyl-[1,2,4]oxadiazol-3-yl)-indol-1-yl]-2-fluoro-benzylcarbamoyl}-cyclopropyl)-2-fluoro-isonicotinamide]	< 20 nM	< 20 nM	–	–
COc1cc(C(=O)NC2(C(=O)NCc3ccc(-n4c(-c5nnc(C)o5)c(Cl)c5ccccc54)cc3)CC2)on1 [Example 5, 3-Methoxy-N-[1-({4-[3-chloro-2-(5-methyl-1,3,4-oxadiazol-2-yl)-1H-indol-1-yl]benzyl}carbamoyl)cyclopropyl]isoxazole-5-carboxamide]	< 20 nM	< 20 nM	–	–
Cc1cnc(C(=O)NC2(C(=O)NCc3ccc(-n4c(-c5noc(C)n5)c(Cl)c5ccccc54)cc3)CC2)cn1 [Example 161, 5-Methyl-pyrazine-2-carboxylic acid (1-{4-[3-chloro-2-(5-methyl-[1,2,4]oxadiazol-3-yl)-indol-1-yl]-benzylcarbamoyl}-cyclopropyl)-amide]	< 20 nM	20 to 100 nM	–	–
Cc1nc(-c2c(Cl)c3ccccc3n2-c2ccc(CNC(=O)C3(NC(=O)c4ccc(C(F)(F)F)c(F)c4)CC3)cc2)no1 [Example 93, N-(1-{4-[3-Chloro-2-(5-methyl-[1,2,4]oxadiazol-3-yl)-indol-1-yl]-benzylcarbamoyl}-cyclopropyl)-3-fluoro-4-trifluoromethyl-benzamide]	20 to 100 nM	20 to 100 nM	–	–
CN1CCN(C(=O)C2CCN(S(=O)(=O)c3ccc(NCC(c4ccccc4)c4ccccc4)c(C(=O)N4CCOCC4)c3)CC2)CC1 [NVP-SAA164, 4-{2-[(2,2-diphenyl-ethyl)-amino]-5-{4-[4-[(4-methyl-1-piperazinyl)-carbonyl]-1-piperidinyl]-sulfonyl}-benzoyl}-morpholine, reference compound]	–	–	8 nM	33 nM
Cc1nc(-c2c(Cl)c3ccccc3n2-c2ccc(CNC(=O)C3(NC(=O)c4cnc5ccccc5c4)CC3)cc2)no1 [Example 159, Quinoline-3-carboxylic acid (1-{4-[3-chloro-2-(5-methyl-[1,2,4]oxadiazol-3-yl)-indol-1-yl]-benzylcarbamoyl}-cyclopropyl)-amide]	< 20 nM	< 20 nM	–	–
Cc1cc(C(=O)NC2(C(=O)NCc3ccc(-n4c(-c5noc(C)n5)c(Cl)c5cc(F)ccc54)cc3)CC2)no1 [Example 88, 5-Methyl-isoxazole-3-carboxylic acid (1-{4-[3-chloro-5-fluoro-2-(5-methyl-[1,2,4]oxadiazol-3-yl)-indol-1-yl]-benzylcarbamoyl}-cyclopropyl)-amide]	< 20 nM	< 20 nM	–	–
Cc1nc(-c2c(Cl)c3cc(F)ccc3n2-c2ccc(CNC(=O)C3(NC(=O)c4cccc(F)c4)CC3)cc2)no1 [Example 86, N-(1-{4-[3-Chloro-5-fluoro-2-(5-methyl-[1,2,4]oxadiazol-3-yl)-indol-1-yl]-benzylcarbamoyl}-cyclopropyl)-3-fluoro-benzamide]	< 20 nM	< 20 nM	–	–
